The text below walks through data of ChEMBL document CHEMBL4811239, “Insertion of metal carbenes into the anilinic N-H bond of unprotected aminobenzenesulfonamides delivers low nanomolar inhibitors of human carbonic anhydrase IX and XII isoforms” (Eur J Med Chem, 2021).

The term Ki denotes the equilibrium dissociation constant of an inhibitor or competing ligand from its target. As usually defined, the IC50 is the concentration at which inhibition is half-maximal.

Active and inactive are the calls of the source. No cut-off for these calls is given here.

The target of assay [1] is Carbonic anhydrase 1 (Homo sapiens, UniProt P00915). As to the kind of experiment: Inhibition of recombinant human CA1 pre-incubated for 15 mins prior to testing by phenol red-based stopped-flow CO2 hydration assay.
Chain of Carbonic anhydrase 1 (P00915 whole entry): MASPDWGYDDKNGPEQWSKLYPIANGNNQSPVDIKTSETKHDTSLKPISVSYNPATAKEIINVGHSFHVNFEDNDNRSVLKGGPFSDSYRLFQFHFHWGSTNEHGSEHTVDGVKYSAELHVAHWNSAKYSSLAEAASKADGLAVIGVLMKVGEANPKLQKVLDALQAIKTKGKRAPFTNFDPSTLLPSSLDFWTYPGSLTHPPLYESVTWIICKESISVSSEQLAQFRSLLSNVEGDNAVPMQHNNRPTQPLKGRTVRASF
The subject of assay [2] is MCF7. As to the kind of experiment: Antiproliferative activity against human MCF7 cells assessed as cell survival at 100 uM after 72 hrs under hypoxic condition by MTT assay. It counts as functional. Conditions: for viability at 100 µM: read-out: Activity. A general note: Tetrazolium assays rely on reduction of a dye to a coloured formazan, in cell work by metabolically active cells.

Assay [3] has as its target Carbonic anhydrase 9 (Homo sapiens, UniProt Q16790). Nature of the assay: Inhibition of recombinant human CA9 pre-incubated for 15 mins prior to testing by phenol red-based stopped-flow CO2 hydration assay.
For assay [4], the system named is MCF7. Nature of the assay: Antiproliferative activity against human MCF7 cells assessed as reduction in cell viability after 72 hrs under hypoxic condition by MTT assay. Conditions: MCF7, 72 h.
Assay [5] in a line: Antiproliferative activity against human WI26VA4 cells assessed as reduction in cell viability after 72 hrs under normoxic condition by MTT assay. Conditions: WI26VA4, 72 h.
Assay [6] relates to MCF7. Nature of the assay: Antiproliferative activity against human MCF-7 cells assessed as cell survival at 100 uM after 72 hrs under normoxic condition by MTT assay. It counts as functional. Conditions: for viability at 100 µM: read-out: Activity.
A short description of assay [7]: Antiproliferative activity against human WI26VA4 cells assessed as reduction in cell viability after 72 hrs under hypoxic condition by MTT assay. Conditions: WI26VA4, 72 h.
Assay [8] has as its system MDA-MB-231. Nature of the assay: Antiproliferative activity against human MDA-MB-231 cells assessed as reduction in cell viability after 72 hrs under normoxic condition by MTT assay. Conditions: MDA-MB-231, 72 h.
Assay [9] addresses Carbonic anhydrase 12 (Homo sapiens, UniProt O43570). As to the kind of experiment: Inhibition of recombinant human CA12 pre-incubated for 15 mins prior to testing by phenol red-based stopped-flow CO2 hydration assay.
The test system of assay [10] is MDA-MB-231. Nature of the assay: Antiproliferative activity against human MDA-MB-231 cells assessed as reduction in cell viability after 72 hrs under hypoxic condition by MTT assay. Conditions: MDA-MB-231, 72 h.
Assay [11] relates to MCF7. Nature of the assay: Antiproliferative activity against human MCF7 cells assessed as reduction in cell viability after 72 hrs under normoxic condition by MTT assay. Conditions: MCF7, 72 h.
The test system of assay [12] is MDA-MB-231. As to the kind of experiment: Antiproliferative activity against human MDA-MB-231 cells assessed as reduction in cell viability at 100 uM after 72 hrs under normoxic condition by MTT assay. It counts as functional.
The subject of assay [13] is MDA-MB-231. As to the kind of experiment: Antiproliferative activity against human MDA-MB-231 cells assessed as reduction in cell viability at 100 uM after 72 hrs under hypoxic condition by MTT assay. It counts as functional.

Chain of Carbonic anhydrase 12 (O43570 whole entry): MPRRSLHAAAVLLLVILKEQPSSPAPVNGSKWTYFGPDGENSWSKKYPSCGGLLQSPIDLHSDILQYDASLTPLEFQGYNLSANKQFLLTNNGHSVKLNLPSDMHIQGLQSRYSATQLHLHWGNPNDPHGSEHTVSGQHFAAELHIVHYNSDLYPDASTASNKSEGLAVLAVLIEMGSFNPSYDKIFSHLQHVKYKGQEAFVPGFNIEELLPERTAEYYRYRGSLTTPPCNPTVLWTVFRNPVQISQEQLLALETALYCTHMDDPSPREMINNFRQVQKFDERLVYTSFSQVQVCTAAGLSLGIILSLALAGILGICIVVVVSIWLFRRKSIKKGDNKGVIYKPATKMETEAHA

On to `Cc1ccc(N2C(=O)C(Cc3ccc(Cl)cc3)=C(Nc3ccc(S(N)(=O)=O)cc3)C2=O)cc1`, for which the inhibition constant Ki was over 10000 nM in assay [1], 81.9 nM in [3] and 128 nM in assay [9]. Moreover, the viability at 100 µM in [2] and in assay [6] was 10% throughout. Moreover, the concentration for half-maximal inhibition (IC50) came to 11500 nM in [4]; 21900 nM in [5]; 26200 nM in [7]; 16600 nM in assay [8]; 15600 nM in [10]; 10800 nM in assay [11].
With `Cc1ccc(N2C(=O)C(Cc3ccc(Cl)cc3)=C(Nc3cccc(S(N)(=O)=O)c3)C2=O)cc1`, the results for the Ki in assay [1], in assay [3] and in [9] were over 10000 nM, 635 nM and 1070 nM, respectively. In addition, the viability at 100 µM in assay [2] and in assay [6] was 10% each time. Moreover, the IC50 amounted to 15300 nM in assay [4]; 22000 nM in assay [5]; 35600 nM in [7]; 37200 nM in assay [8]; 36800 nM in [10]; 14900 nM in assay [11].
For the molecule `Cc1ccc(C(=O)CNc2ccc(S(N)(=O)=O)cc2)cc1`, the figures for the Ki in [1], in [3] and in assay [9] were 53.3 nM, 15.2 nM and 67.4 nM, respectively. For the same molecule, the outcome in assay [12], in [2], in assay [13] and in assay [6] was inactive.
Turning to `CC(C)OC(=O)C(Nc1ccc(S(N)(=O)=O)cc1)C(=O)OC(C)C`, the Ki in [1] was determined as 105 nM; in assay [3] it was 28.1 nM; in assay [9] it was 61.4 nM. The outcome in assay [12], in assay [2], in assay [13] and in assay [6] was inactive.
On to `NS(=O)(=O)c1cccc(NCC(=O)N2CCN(Cc3ccc(Cl)cc3)CC2)c1`, for which the Ki was 3950 nM in [1], 116 nM in assay [3] and 36.1 nM in assay [9]. Further, the outcome in assay [12], in assay [2], in [13] and in assay [6] was inactive.
For the molecule `COCCOC(=O)C(Nc1ccc(S(N)(=O)=O)cc1)C(=O)OCCOC`, the Ki was 85.8 nM in assay [1], 36.8 nM in [3] and 45 nM in [9]. The outcome in [12], in assay [2], in assay [13] and in [6] was inactive.
